Experimental data taken from patent US9206186B2, “2-phenoxy- and 2-phenylsulfonamide derivatives with CCR3 antagonistic activity for the treatment of inflammatory or immunological disorders” (AXIKIN PHARMACEUTICALS, INC., priority 2003, dated 2015).
Structures can show the parent of a compound that is named as a salt.

Columns and labels:
Human CCR3 = biological target: T1, Human CCR3 (Homo sapiens, UniProt P51677); experiment: Calcium mobilization assay (Ca2+), eotaxin-stimulated human CCR3-transformed K562 cells; type: cell-based; conditions: compounds of about 40 to 90% purity, read-out: Activity grade IC50
T1 construct: The cloned CCR3 cDNA was constructed with pcDNA3 vector and transfected into a K562 cell line; expressed in transfected cells
T1 sequence (P51677 1-355): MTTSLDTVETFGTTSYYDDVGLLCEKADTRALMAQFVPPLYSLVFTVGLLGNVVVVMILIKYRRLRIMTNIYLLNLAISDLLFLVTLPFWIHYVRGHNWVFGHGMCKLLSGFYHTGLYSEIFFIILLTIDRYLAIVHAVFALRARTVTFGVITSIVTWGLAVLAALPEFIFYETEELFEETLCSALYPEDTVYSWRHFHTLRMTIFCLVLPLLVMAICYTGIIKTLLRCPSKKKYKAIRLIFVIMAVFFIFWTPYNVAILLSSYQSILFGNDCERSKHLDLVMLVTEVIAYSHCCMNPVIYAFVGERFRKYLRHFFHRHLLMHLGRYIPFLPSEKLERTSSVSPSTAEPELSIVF
Procedure: • Human CCR3-transformed K562 cells were used. The cloned CCR3 cDNA was constructed with pcDNA3 vector and transfected into a K562 cell line. The human CCR3-transformed K562 cells were maintained in RPMI-1640 (Cat.#22400-089, Life Technologies) supplemented with 10% FCS (Cat.#A-1115-L, Hyclone), 55 μM 2-mercaptoethanol (Cat.#21985-023, Life Technologies), 1 mM sodium pyruvate (Cat.#11360-070, Life Technologies), 100 units/ml of penicillin G and 100 μg/ml of streptomycin (Cat.#15140-122, Life Technologies), and 0.4 mg/ml of Geneticin (Cat.#10131-035, Life Technologies) (hereinafter called “culture medium”). Before the receptor binding assay, cells were pretreated with 5 mM sodium butyrate (Cat.#193-01522, Wako)-containing the culture medium (2×10^5 cells/ml) for 20-24 hours to increase the expression of CCR3. (2) Receptor Binding Assay • Butyrate-pretreated cells, suspended in binding buffer (25 mM HEPES pH 7.6, 1 mM CaCl2, 5 mM MgCl2, 0.5% BSA, 0.1% NaN3) at a cell density of 2×10^6 cells/ml, were added into 60 μl/well in the 96-well round bottom polypropylene plate (Cat.#3365, Costar). Compounds, diluted with the binding buffer (4-times higher concentration of the final concentration), were added into 30 μl/well in the polypropylene plate. [^125I]-labeled human eotaxin (Cat.#IM290, Amersham Pharmacia Biotech), diluted with the binding buffer at the concentration of 0.4 nM (final concentration; 0.1 nM), was added into 30 μl/well in the polypropylene plate. Total 120 μl/well of binding reaction mixture (60 μl/well of cell suspension, 30 μl/well of compound solution, and 30 μl/well of [^125I]-labeled eotaxin) were incubated in the polypropylene plate for 1 hour at room temperature after the incubation, 100 μl/well of the reaction mixture was transferred to a filtration plate (Cat.#MAFB-N0B, Millipore), and washed with the washing buffer (25 mM HEPES pH 7.6, 1 mM CaCl2, 5 mM MgCl2, 0.5% BSA, 0.1% NaN3, 0.5 M NaCl) twice. The 96-well filtration plate was pretreated with 100 μl/well of 0.5% polyethylenimine (Cat.#P-3143, Sigma) for 2-4 hours at room temperature and washed with the washing buffer twice before use. The non-specific binding was determined by parallel incubation in the presence of 500 nM of non-labeled eotaxin (Cat.#23209, Genzyme Techne). The radioactivities remained on the filter were measured by liquid scintillation counter (TopCount™, Packard) after an addition of 45 μl/well of scintillant (Microscint20, Cat.#6013621, Packard). The inhibition percent at each concentration of compound was calculated, and IC50 values were determined from the inhibition curve. [Determination of IC50 Values of Compounds in Calcium Mobilization Assay] (1) Cell • Human CCR3-transformed K562 cells were used. The human CCR3-transformed K562 cells were maintained in RPMI-1640 supplemented with 10% FCS, 55 μM 2-mercaptoethanol (Cat.#21985-023, Life Technologies), 1 mM sodium pyruvate, 100 units/ml of penicillin G and 100 μg/ml of streptomycin, and 0.4 mg/ml of Geneticin. Before the calcium mobilization assay, cells were pretreated with 5 mM sodium butyrate-containing the culture medium (2×10^5 cells/ml) for 20-24 hours to increase the expression of CCR3. (2) Calcium Mobilization Assay • Butyrate-pretreated cells were loaded with Fluo-3AM (Cat.#F-1242, Molecular Probes) in loading buffer (Hanks' solution Cat.#05906 Nissui, 20 mM HEPES pH 7.6, 0.1% BSA, 1 mM probenecid Cat.#P-8761 Sigma, 1 μM Fluo-3AM, 0.01% pluronic F-127 Cat.#P-6866 Molecular Probes) at a cell density of 1×10^7 cells/ml. Then, cells were washed with calcium assay buffer (Hanks' solution Cat.#05906 Nissui, 20 mM HEPES pH 7.6, 0.1% BSA, 1 mM Probenecid Cat.#P-8761 Sigma). The cell suspension (3.3×10^6 cells/ml) was added into 60 μl/well in the 96-well clear bottom black plate (Cat.#3904, Costar). Compounds, diluted (5-times concentration of the final concentration) with the calcium assay buffer, were added into 20 μl/well in the plate 10 minutes before assay. […]

| melting point | IC50 (Human CCR3) [nM] | Compound |
| --- | --- | --- |
| 220 to 226 °C (dec.) | – | N#Cc1ccc(Oc2cc(Cl)cc(Cl)c2)c(S(=O)(=O)C2CCNCC2)c1 (as salt: hydrochloride) [Example 2-1, 4-(3,5-Dichloro-phenoxy)-3-(piperidine-4-sulfonyl)-benzonitrile] |
| 256 °C | – | O=[N+]([O-])c1ccc(Sc2cc(Cl)cc(Cl)c2)c(S(=O)(=O)N[C@H]2CN3CCC2CC3)c1 (stereo in doubt) |
| 153 to 154 °C | 100 to 500 | N#Cc1ccc(Oc2cc(Cl)cc(Cl)c2)c(S(=O)(=O)N2CC[C@H](N(CCO)CCO)C2)c1 [Example 1-15] |
| – | 100 to 500 | N#Cc1ccc(Oc2cc(Cl)cc(Cl)c2)c(S(=O)(=O)N2CC[C@H](N3C[C@H](O)[C@@H](O)C3)C2)c1 [Example 1-18] |
| – | > 500 | N#Cc1ccc(Oc2cc(Cl)cc(Cl)c2)c(S(=O)(=O)N[C@@H]2C[C@H](O)[C@@H](O)C[C@@H]2N)c1 [Example 1-19] |
| – | 100 to 500 | CN(C)CCN(C)CCN(C)S(=O)(=O)c1cc(C#N)ccc1Oc1cc(Cl)cc(Cl)c1 [Example 1-23] |
| – | > 500 | O=S(=O)(c1cc(-n2cnnn2)ccc1Oc1cc(Cl)cc(Cl)c1)N1CCNCC1 [Example 1-30] |
| – | > 500 | N#Cc1ccc(Oc2cc(Cl)cc(Cl)c2)c(S(=O)(=O)NC2CN(Cc3ccccc3)CCN(Cc3ccccc3)C2)c1 [Example 1-41] |
| 220 to 226 °C (dec.) | – | Cl.N#Cc1ccc(Oc2cc(Cl)cc(Cl)c2)c(S(=O)(=O)C2CCNCC2)c1 [Example 1-47] |

The remaining lines, values behind:

| Compound | melting point | IC50 (Human CCR3) [nM] |
| --- | --- | --- |
| CC(C)(C)[Si](C)(C)O[C@H]1CN(C2CCN(S(=O)(=O)c3cc(C#N)ccc3Oc3cc(Cl)cc(Cl)c3)CC2)C[C@@H]1O [Example 1-14] | – | 100 to 500 |
| N#Cc1ccc(Oc2cc(Cl)cc(Cl)c2)c(S(=O)(=O)N[C@@H]2CC3OC3C[C@@H]2N)c1 (stereo partly drawn) [Example 1-17] | 165 to 182 °C (dec.) | > 500 |
| Cl.Cl.N#Cc1ccc(Oc2cc(Cl)cc(Cl)c2)c(S(=O)(=O)N2CCNC(CN)C2)c1 (stereo not drawn) [Example 1-20] | 240 to 241 °C | > 500 |
| N#Cc1ccc(Oc2cc(Cl)cc(Cl)c2)c(S(=O)(=O)NC2CCCCNC2=O)c1 (stereo not drawn) [Example 1-24] | 172 to 173 °C | 100 to 500 |
| COC(=O)C1CN(C2CCNCC2)CCCN1S(=O)(=O)c1cc(C#N)ccc1Oc1cc(Cl)cc(Cl)c1 (stereo not drawn) [Example 1-25] | – | 100 to 500 |
| N#Cc1ccc(Oc2cc(Cl)cc(Cl)c2)c(S(=O)(=O)N(CCN2C(=O)CCC2=O)[C@H]2CN3CCC2CC3)c1 [Example 1-38] | – | > 500 |
| CN(C)CC(NS(=O)(=O)c1cc(C#N)ccc1Oc1cc(Cl)cc(Cl)c1)C(=O)O (stereo not drawn) [Example 1-40] | 190 °C | > 500 |
